Structures can show the parent of a compound that is named as a salt.
Molecular target: T1, human vasopressin V1b receptor (Homo sapiens, UniProt P47901)
T1 construct: expressed in transfected cells; host or cells: CHO-K1 (cell line hV1b_3H2_CHO), membrane preparation
T1 sequence (P47901 1-424): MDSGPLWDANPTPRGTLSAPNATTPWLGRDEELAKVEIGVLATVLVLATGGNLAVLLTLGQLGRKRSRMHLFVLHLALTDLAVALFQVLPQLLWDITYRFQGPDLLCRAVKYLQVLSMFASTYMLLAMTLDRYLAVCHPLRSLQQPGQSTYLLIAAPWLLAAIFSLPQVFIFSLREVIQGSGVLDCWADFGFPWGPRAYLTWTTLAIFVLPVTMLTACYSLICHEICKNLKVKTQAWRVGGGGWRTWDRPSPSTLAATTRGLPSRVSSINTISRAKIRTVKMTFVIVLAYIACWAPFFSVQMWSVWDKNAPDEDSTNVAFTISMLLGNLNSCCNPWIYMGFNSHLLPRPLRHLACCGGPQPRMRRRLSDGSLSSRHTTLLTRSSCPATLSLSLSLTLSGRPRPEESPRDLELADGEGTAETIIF
Assay: Vasopressin V1b receptor binding test
Conditions: membranes of CHO-K1 cells, displacement of 1.5 nM 3H-AVP
Experimental: • Vasopressin V1b Receptor Binding Test: • Substances:
The test substances were dissolved at a concentration of 10^−2 M in DMSO and diluted further in DMSO to 5×10^−4 M to 5×10^−9 M. These DMSO solutions were diluted 1:10 with test buffer. The concentration of substance was again diluted 1:5 in the test preparation.
The membrane pellet was homogenized and centrifuged again as described, and then taken up in 50 mM Tris-HCl, pH 7.4, homogenized and, frozen in aliquots, stored at −190° C. in liquid nitrogen.
The incubation buffer was: 50 mM Tris, 10 mM MgCl2, 0.1% BSA, pH 7.4. […] The nonspecific binding was determined with 1 μM AVP (Bachem #H1780). All determinations were performed in triplicate. After incubation (60 minutes at room temperature), the free radioligand was filtered off by vacuum filtration (Skatron cell harvester 7000) on Whatman GF/B glass-fibre filter mats and the filters were transferred to scintillation vessels. Liquid scintillation measurement was performed in a Tricarb instrument, Model 2000 or 2200CA (Packard). Conversion of the measured cpm to dpm was performed with the aid of a standard quench series.
The binding parameters were calculated by nonlinear regression in SAS.
For the compounds according to the invention, the affinities for the human vasopressin receptor V1b were measured according to the above test and the affinity constant (Ki) was determined.

## COc1ccc(S(=O)(=O)N2C(=O)C(c3cc(F)ccc3OC)(N3CCN(c4ccncc4)CC3)c3cc(C#N)ccc32)c(OC)c1 (racemic) [Example 65, (±)-5-Cyano-1-(2,4-dimethoxy-benzenesulphonyl)-3-(5-fluoro-2-methoxyphenyl)-3-(4-pyridin-4-yl-piperazin-1-yl)-2,3-dihydro-1H-indol-2-one]
  Ki: 50 to 500 nM

## COc1ccc(S(=O)(=O)N2C(=O)C(c3cc(C)ccc3OC)(N3CCN(c4ccncc4)CC3)c3cc(C#N)ccc32)c(OC)c1 (racemic) [Example 67, (±)-5-Cyano-1-(2,4-dimethoxy-benzenesulphonyl)-3-(2-methoxy-5-methylphenyl)-3-(4-pyridin-4-yl-piperazin-1-yl)-2,3-dihydro-1H-indol-2-one×trifluoroacetic acid]
  Ki: < 50 nM

## CCOc1ccccc1C1(N2CCN(c3ccncc3)CC2)C(=O)N(S(=O)(=O)c2ccc(C#N)cc2F)c2ccc(C#N)cc21 (racemic) [Example 68, (±)-5-Cyano-1-(4-cyano-2-fluoro-benzenesulphonyl)-3-(2-ethoxyphenyl)-3-(4-pyridin-4-yl-piperazin-1-yl)-2,3-dihydro-1H-indol-2-one]
  Ki: 50 to 500 nM

## CCOc1ccccc1C1(N2CCN(c3ccncc3)CC2)C(=O)N(S(=O)(=O)c2ccc(F)cc2F)c2ccc(C#N)cc21 (racemic) [Example 72, (±)-5-Cyano-1-(2,4-difluoro-benzenesulphonyl)-3-(2-ethoxyphenyl)-3-(4-pyridin-4-yl-piperazin-1-yl)-2,3-dihydro-1H-indol-2-one trifluoroacetate]
  Ki: 50 to 500 nM

## CCOc1ccccc1C1(N2CCN(C3CCN(C)CC3)CC2)C(=O)N(S(=O)(=O)c2ccc(OC)cc2OC)c2ccc(C#N)cc21 (racemic) [Example 76, (±)-5-Cyano-1-(2,4-dimethoxy-benzenesulphonyl)-3-(2-ethoxyphenyl)-3-[4-(1-methyl-piperidin-4-yl)-piperazin-1-yl]-2,3-dihydro-1H-indol-2-one]
  Ki: 50 to 500 nM

## CCOc1ccc(S(=O)(=O)N2C(=O)C(c3ccccc3OCC)(N3CCN(c4ccncc4)CC3)c3cc(C#N)ccc32)c(OC)c1 (racemic) [Example 77, (±)-5-Cyano-1-(4-ethoxy-2-methoxy-benzenesulphonyl)-3-(2-ethoxyphenyl)-3-(4-pyridin-4-yl-piperazin-1-yl)-2,3-dihydro-1H-indol-2-one hydrochloride]
  Ki: 50 to 500 nM

## CCOc1ccccc1C1(N2CCN(c3ccncc3)CC2)C(=O)N(S(=O)(=O)c2ccc(Cl)cc2F)c2ccc(C#N)cc21 (racemic) [Example 78, (±)-5-Cyano-1-(4-chloro-2-fluoro-benzenesulphonyl)-3-(2-ethoxyphenyl)-3-(4-pyridin-4-yl-piperazin-1-yl)-2,3-dihydro-1H-indol-2-one]
  Ki: 50 to 500 nM

## CCOc1ccccc1C1(N2CCN(c3ccncc3)CC2)C(=O)N(S(=O)(=O)c2ccc(C(C)(C)C)cc2)c2ccc(C#N)cc21 (racemic) [Example 80, (±)-5-Cyano-1-(4-tert-butyl-benzenesulphonyl)-3-(2-ethoxyphenyl)-3-(4-pyridin-4-yl-piperazin-1-yl)-2,3-dihydro-1H-indol-2-one]
  Ki: 50 to 500 nM

## CCOc1ccccc1C1(N2CCN(c3ccncc3)CC2)C(=O)N(S(=O)(=O)c2ccc(C(C)C)cc2)c2ccc(C#N)cc21 (racemic) [Example 81, (±)-5-Cyano-3-(2-ethoxyphenyl)-1-(4-isopropyl-benzenesulphonyl)-3-(4-pyridin-4-yl-piperazin-1-yl)-2,3-dihydro-1H-indol-2-one]
  Ki: 50 to 500 nM

## CCOc1ccccc1C1(N2CCN(c3ccncc3)CC2)C(=O)N(S(=O)(=O)c2ccc(N)cc2)c2ccc(C#N)cc21 (racemic) [Example 84, (±)-5-Cyano-1-(4-amino-benzenesulphonyl)-3-(2-ethoxyphenyl)-3-(4-pyridin-4-yl-piperazin-1-yl)-2,3-dihydro-1H-indol-2-one]
  Ki: 50 to 500 nM

## CCOc1ccccc1C1(N2CCN(c3ccncc3)CC2)C(=O)N(S(=O)(=O)c2ccc(C)cc2)c2ccc(C#N)cc21 (racemic) [Example 85, (±)-5-Cyano-3-(2-ethoxyphenyl)-3-(4-pyridin-4-yl-piperazin-1-yl)-1-(toluene-4-sulphonyl)-2,3-dihydro-1H-indol-2-one]
  Ki: 50 to 500 nM

## CCOc1ccccc1C1(N2CCN(c3ccncc3)CC2)C(=O)N(S(=O)(=O)c2ccc(S(C)(=O)=O)cc2)c2ccc(C#N)cc21 (racemic) [Example 86, (±)-5-Cyano-3-(2-ethoxyphenyl)-1-(4-methanesulphonyl-benzenesulphonyl)-3-(4-pyridin-4-yl-piperazin-1-yl)-2,3-dihydro-1H-indol-2-one]
  Ki: 50 to 500 nM

## CCOc1ccccc1C1(N2CCN(c3ccncc3)CC2)C(=O)N(S(=O)(=O)c2ccc(OC(F)F)cc2)c2ccc(C#N)cc21 (racemic) [Example 87, (±)-5-Cyano-1-(4-difluoromethoxy-benzenesulphonyl)-3-(2-ethoxyphenyl)-3-(4-pyridin-4-yl-piperazin-1-yl)-2,3-dihydro-1H-indol-2-one]
  Ki: 50 to 500 nM

## CCOc1ccccc1C1(N2CCN(c3ccncc3)CC2)C(=O)N(S(=O)(=O)c2ccc(C(C)=O)cc2)c2ccc(C#N)cc21 (racemic) [Example 88, (±)-5-Cyano-1-(4-acetyl-benzenesulphonyl)-3-(2-ethoxyphenyl)-3-(4-pyridin-4-yl-piperazin-1-yl)-2,3-dihydro-1H-indol-2-one]
  Ki: 50 to 500 nM

## CCOc1ccc(S(=O)(=O)N2C(=O)C(c3ccccc3OCC)(N3CCN(c4ccncc4)CC3)c3cc(C#N)ccc32)cc1 (racemic) [Example 89, (±)-5-Cyano-1-(4-ethoxy-benzenesulphonyl)-3-(2-ethoxyphenyl)-3-(4-pyridin-4-yl-piperazin-1-yl)-2,3-dihydro-1H-indol-2-one]
  Ki: 50 to 500 nM

## CCOc1ccccc1C1(N2CCN(c3ccncc3)CC2)C(=O)N(S(=O)(=O)c2ccc(CC)cc2)c2ccc(C#N)cc21 (racemic) [Example 90, (±)-5-Cyano-3-(2-ethoxyphenyl)-1-(4-ethyl-benzenesulphonyl)-3-(4-pyridin-4-yl-piperazin-1-yl)-2,3-dihydro-1H-indol-2-one]
  Ki: 50 to 500 nM

## CCOc1ccccc1C1(N2CCN(c3ccncc3)CC2)C(=O)N(S(=O)(=O)c2ccc([N+](=O)[O-])cc2OC)c2ccc(C#N)cc21 (racemic) [Example 91, (±)-5-Cyano-3-(2-ethoxyphenyl)-1-(2-methoxy-4-nitro-benzenesulphonyl)-3-(4-pyridin-4-yl-piperazin-1-yl)-2,3-dihydro-1H-indol-2-one]
  Ki: 50 to 500 nM

## CCOc1ccc(OC)cc1C1(N2CCN(c3ccnc(C(C)C)c3)CC2)C(=O)N(S(=O)(=O)c2ccc(OC)cc2OC)c2ccc(C#N)cc21 (racemic) [Example 92, (±)-5-Cyano-1-(2,4-dimethoxy-benzenesulphonyl)-3-(2-ethoxy-5-methoxyphenyl)-3-[4-(2-isopropyl-pyridin-4-yl)-piperazin-1-yl]-2,3-dihydro-1H-indol-2-one]
  Ki: < 50 nM

## CCOc1ccccc1C1(N2CCN(c3ccnc(CC)c3)CC2)C(=O)N(S(=O)(=O)c2ccc(OC)cc2OC)c2ccc(C#N)cc21 (racemic) [Example 93, (±)-5-Cyano-1-(2,4-dimethoxy-benzenesulphonyl)-3-(2-ethoxyphenyl)-3-[4-(2-ethyl-pyridin-4-yl)-piperazin-1-yl]-2,3-dihydro-1H-indol-2-one]
  Ki: < 50 nM

## CCOc1ccc(OC)cc1C1(N2CCN(c3ccnc(CC)c3)CC2)C(=O)N(S(=O)(=O)c2ccc(OC)cc2OC)c2ccc(C#N)cc21 (racemic) [Example 94, (±)-5-Cyano-1-(2,4-dimethoxy-benzenesulphonyl)-3-(2-ethoxy-5-methoxyphenyl)-3-[4-(2-ethyl-pyridin-4-yl)-piperazin-1-yl]-2,3-dihydro-1H-indol-2-one]
  Ki: < 50 nM

## CCOc1ccc(OC)cc1C1(N2CCCN(c3ccnc(C)c3)CC2)C(=O)N(S(=O)(=O)c2ccc(OC)cc2OC)c2ccc(C#N)cc21 (racemic) [Example 95, (±)-5-Cyano-1-(2,4-dimethoxy-benzenesulphonyl)-3-(2-ethoxy-5-methoxyphenyl)-3-[4-(2-methyl-pyridin-4-yl)-[1.4]diazepan-1-yl]-2,3-dihydro-1H-indol-2-one]
  Ki: < 50 nM

## CCOc1ccc(OC)cc1C1(N2CCN(C3CCNCC3)CC2)C(=O)N(S(=O)(=O)c2ccc(OC)cc2OC)c2ccc(C#N)cc21 (racemic) [Example 100, (±)-5-Cyano-1-(2,4-dimethoxy-benzenesulphonyl)-3-(2-ethoxy-5-methoxyphenyl)-3-(4-piperidin-4-yl-piperazin-1-yl)-2,3-dihydro-1H-indol-2-one hydrochloride]
  Ki: < 50 nM
